Test results from publication PMC5034429, “Enantioselective cascade biocatalysis for deracemization of 2-hydroxy acids using a three-enzyme system” (Microbial Cell Factories, 2016).

Target: T1, (S)-2-HADH from P. aeruginosa NUST (Pseudomonas aeruginosa, UniProt R9RKA7)
T1 construct: synthetic gene in pET28b, E. coli BL21(DE3); resting cells; ~42 kDa on SDS-PAGE; FMN flavoprotein; strain also misprinted NSUT
T1 sequence (R9RKA7 1-393): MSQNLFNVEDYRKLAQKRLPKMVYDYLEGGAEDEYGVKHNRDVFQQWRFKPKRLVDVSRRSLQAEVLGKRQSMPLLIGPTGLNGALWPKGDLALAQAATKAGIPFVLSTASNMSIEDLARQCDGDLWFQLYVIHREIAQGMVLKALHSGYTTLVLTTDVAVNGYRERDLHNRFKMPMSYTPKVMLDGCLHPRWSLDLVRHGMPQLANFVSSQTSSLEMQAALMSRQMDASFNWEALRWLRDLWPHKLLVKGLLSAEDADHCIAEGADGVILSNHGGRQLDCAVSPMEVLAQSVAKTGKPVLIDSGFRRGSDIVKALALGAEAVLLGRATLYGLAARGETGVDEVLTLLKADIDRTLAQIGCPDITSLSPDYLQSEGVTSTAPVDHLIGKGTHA
Experiment: apoenzyme reactivation
Assay type: biochemical
Conditions: flavin removal, then addition of FMN

In the case of `Cc1cc2nc3c(=O)[nH]c(=O)nc-3n(C[C@H](O)[C@H](O)[C@H](O)COP(=O)(O)O)c2cc1C` [FMN], the apoenzyme reactivation is reported as “The activity of the apoenzyme was partly reactivated by the addition of FMN”.
